Laboratory results: paper PMC8220418, “A fragment-based approach to assess the ligandability of ArgB, ArgC, ArgD and ArgF in the L-arginine biosynthetic pathway of Mycobacterium tuberculosis” (Computational and Structural Biotechnology Journal, 2021)
In brackets after ≈: the same amount, converted by molar mass. Read-outs that look alike come from different tables or passages of the source.

What was measured:
[1] = target: T1, ArgC (Mycobacterium tuberculosis, UniProt P9WPZ9); assay: Surface plasmon resonance with immobilised ArgC; format: binding
T1 sequence (P9WPZ9 whole entry, the tested form may be a part): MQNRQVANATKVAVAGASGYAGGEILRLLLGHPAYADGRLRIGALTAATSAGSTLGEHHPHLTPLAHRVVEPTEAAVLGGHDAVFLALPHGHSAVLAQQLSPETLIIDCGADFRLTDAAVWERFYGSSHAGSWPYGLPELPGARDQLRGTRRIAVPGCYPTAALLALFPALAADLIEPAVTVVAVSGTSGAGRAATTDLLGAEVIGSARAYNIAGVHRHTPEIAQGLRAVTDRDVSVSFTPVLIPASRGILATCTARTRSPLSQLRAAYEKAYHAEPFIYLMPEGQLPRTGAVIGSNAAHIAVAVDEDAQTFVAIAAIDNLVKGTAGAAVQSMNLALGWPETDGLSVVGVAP
Experimental: Low molecular weight (LMW) screening with the DSF fragment hits was carried out using the T200 Biacore instrument (GE Healthcare Life Sciences). A series S CM5 sensor chip (GE Healthcare Life Sciences) was used for the immobilisation of ArgC on the carboxymethylated dextran matrix through amine coupling. A 25 μg/mL ArgC dilution was prepared in the optimal coupling buffer (sodium acetate pH 5), and immobilisation was performed by manual instructions. The immobilised ArgC was tested using dilution series (19 μM to 2.5 mM) of NADP^+ and NADPH. 50 mM fragment DMSO stocks were used to prepare 1 mM dilutions in the SPR buffer consisting of 10 mM sodium phosphate pH 7.0, 150 mM NaCl and 2% DMSO (v/v). Each NADP^+/NADPH and fragment dilution was injected once at a flow rate of 30 μL/min for a contact time of 30 s, SPR Running buffer (10 mM sodium phosphate pH 7.0 and 150 mM NaCl) was passed for 320 s at the same flow rate, and 50% DMSO v/v (diluted in SPR running buffer) was injected at the end of the cycle to remove undissociated analyte. Solvent correction was carried out to account for DMSO mismatch between the analyte dilutions and the SPR running buffer.
The fragment hits obtained previously were injected at a concentration of 1 mM. The sensorgrams for all the analytes were inspected visually to exclude fragments with either no discernible response or a “sticky” profile from further analysis (representative sensorgrams for fragment binders are shown in Fig. S2a and b). The binding level was calculated using the T200 software and adjusted for molecular weights of the analytes (Fig. S2c and d). For ArgC, 22 fragments with a binding level response ≥20 RU were shortlisted, whereas in the case of ArgD, 20 fragments with a response ≥10 RU were shortlisted for crystallographic validation. Fragments were thereafter described either as SPR ‘positive’ or ‘negative’.

[2] = target: T1, ArgC; assay: ArgC enzymatic assay (NADPH oxidation at 340 nm); format: biochemical; settings: 2 mM fragment, 3.5 μM ArgC, 2.5% DMSO
Experimental: To synthesise the ArgC substrate, a reaction mixture containing 3 μM ArgB, 1 mM NAG and 1 mM ATP in 50 mM Tris-HCl pH 7.5, 100 mM NaCl and 40 mM MgCl2 was made and the reaction was allowed to proceed for 1–1.5 h at room temperature. Thereafter, 100 μL of the ArgC reaction mixture consisting of 50 mM Tris-HCl pH 7.5, 100 mM NaCl and 0.6 mM NADPH (concentration in 200 μL), was added to each well together with 100 μL of the ArgB reaction mixture and followed for 30 min at 35 °C by measuring the oxidation of NADPH at 340 nm. Controls with only NADPH, 2.5% DMSO (v/v) and no ArgC, as well as only NADPH, 4 mM fragment and no ArgC were prepared. Baseline ArgC activity was assayed with and without DMSO, the effect of 2.5% and 5% DMSO on enzymatic activity was also tested. […] All conditions were prepared in triplicates. 3.5 μM ArgC was added just before measurements were started.

[3] = target: T1, ArgC; assay: Differential scanning fluorimetry (DSF) fragment screening against ArgC; format: binding; settings: for ΔTm at 5000 µM: fragments at 5 mM, 2.5 μM ArgC; for DSF ΔTm: 1 mM co-factor, average across all DSF runs
Experimental: (§1) Fragment screening was carried out in a 96-well PCR plate using a CFX Connect Real-time PCR Detection System (Bio-Rad) for DSF. For ArgB, each 25 μL reaction mixture contained 10 µM ArgB, 100 mM HEPES (pH 7.5), 200 mM NaCl, 5x SYPRO Orange, 5% DMSO (v/v), and fragments at 5 mM. For ArgF each 25 μL reaction mixture contained 5 µM ArgF, 25 mM Tris-HCl (pH 8.0), 150 mM NaCl, 5x SYPRO Orange dye, 5 mM fragments and 5% DMSO (v/v). For ArgC and ArgD, the 25 μL reaction volume consisted of the following: 2.5 μM ArgC/5 μM ArgD, 100 mM sodium phosphate pH 7, 200 mM NaCl, 5x SYPRO Orange, and 5 mM fragments (960 fragment library). The protocol implemented increased temperature by 0.5 °C after every 30 s, going from 25 °C to 95 °C and measuring SYPRO Orange fluorescence for each temperature cycle. The melt curve RFU (relative fluorescence units) and derivative -d(RFU)/dT values were analysed and plotted using a macros-enabled Excel Workbook: the minima of the melt curves were recorded as the melting temperature (Tm) of the enzymes in the presence of each fragment. The Tm of the reference control (protein in the presence of DMSO) was subtracted from all the readings to calculate ΔTm.

[4] = target: T1, ArgC; assay: X-ray crystallography of ArgC soaked with fragments (binding site); settings: crystal soaking
Experimental: ArgC crystals grown in pH 5.5 were first soaked in 1.5 µL drops containing the mother liquor and 5 mM NADP^+ for 2 h in hanging drops that were equilibrated against a reservoir of 500 µL. Thereafter, the crystals were transferred to drops containing the crystallisation condition and an SPR-validated fragments (20 mM, 10% DMSO), which were equilibrated against 500 µL of mother liquor also containing a corresponding percentage of DMSO overnight at 19 °C. ArgC crystals grown in pH 7 were soaked with 5 mM NADP^+ only for 5–10 min due to the rapid development of cracks, and transferred to the fragment soaking drops for 5–10 min from where they were fished and frozen.
X-ray diffraction data (single-wavelength anomalous diffraction) were collected on beamlines i02, i03, i04, i04-1 and i24 at the Diamond Light Source (DLS), UK and on id30B at The European Synchrotron Radiation Facility (ESRF). Diffraction data were processed and reduced with autoPROC from Global Phasing Limited or Xia2 [31]. The apo-form of ArgB was crystallised in the R3_2 space group with one protomer per asymmetric unit (ASU) and the ArgB:NAG complex in the P6_3 space group with two protomers per ASU. ArgF was crystallized in the P2_1 space group with 6 protomers in the ASU. ArgC was crystallised in C2 and P2_1 space groups, with 2 and 4/8 protomers per ASU respectively. ArgD was crystallised in the P2_1 space group as well but with 4 protomers in the ASU.
Initial phases were determined with PHASER [32] from PHENIX software package using the M. tuberculosis ArgB structure (PDB: 2AP9), M. tuberculosis ArgF structure (PDB: 2P2G), M. tuberculosis ArgC structure (PDB: 2I3G) and E. coli Succinyl-ornithine transaminase (AstC, 42% sequence identity, PDB: 4ADB) as a search models, respectively for ArgB, ArgF, ArgC and ArgD. Model building was done with Coot, and refinement was performed in PHENIX [33], [35] for ArgB, ArgF, and ArgC. For ArgD, after the initial molecular replacement solution and a single cycle of refinement, PHENIX AutoBuild was used to generate a model for M. tuberculosis ArgD that was then refined with Coot and PHENIX. Structure validation was performed using Coot and PHENIX tools, [34]. All figures were prepared with PyMOL (The PyMOL Molecular Graphics System, Version 2.0 Schrodinger, LLC).

[5] = target: ArgD (Mycobacterium tuberculosis, UniProt P9WPZ7); assay: Differential scanning fluorimetry (DSF) against ArgD; format: binding
Chain of ArgD (P9WPZ7 whole entry, the tested form may be a part): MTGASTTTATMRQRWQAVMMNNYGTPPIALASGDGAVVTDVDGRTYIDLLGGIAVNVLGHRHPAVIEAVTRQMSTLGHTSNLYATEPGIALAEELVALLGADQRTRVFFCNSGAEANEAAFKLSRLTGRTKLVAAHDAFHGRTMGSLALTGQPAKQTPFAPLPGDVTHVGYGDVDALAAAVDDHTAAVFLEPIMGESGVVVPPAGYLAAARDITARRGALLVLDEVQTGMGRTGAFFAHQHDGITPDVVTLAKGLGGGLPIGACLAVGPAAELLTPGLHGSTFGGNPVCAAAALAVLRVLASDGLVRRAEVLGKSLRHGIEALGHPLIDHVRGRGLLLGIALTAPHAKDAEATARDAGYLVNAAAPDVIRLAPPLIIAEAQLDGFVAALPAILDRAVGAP

[6] = target: T2, ArgB (Mycobacterium tuberculosis, UniProt P9WQ01); assay: Differential scanning fluorimetry (DSF) fragment screening against ArgB; format: binding; settings: known ligands (positive controls); 1 mM for ATP, N-acetyl-glutamate, L-arginine
Experimental: as §1

[7] = target: ArgF (Mycobacterium tuberculosis, UniProt P9WIT9); assay: biochemical; format: binding; settings: natural ligands at 1 mM
Chain of ArgF (P9WIT9 whole entry): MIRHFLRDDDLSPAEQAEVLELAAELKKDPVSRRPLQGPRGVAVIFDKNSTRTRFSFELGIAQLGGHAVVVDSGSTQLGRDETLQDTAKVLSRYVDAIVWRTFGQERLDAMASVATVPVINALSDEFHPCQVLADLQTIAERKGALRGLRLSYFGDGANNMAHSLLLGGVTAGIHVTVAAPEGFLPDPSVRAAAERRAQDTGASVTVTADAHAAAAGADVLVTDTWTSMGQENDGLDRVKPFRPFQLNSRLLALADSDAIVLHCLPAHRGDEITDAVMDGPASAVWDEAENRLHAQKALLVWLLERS
Experimental: Fragment screening was carried out in a 96-well PCR plate using a CFX Connect Real-time PCR Detection System (Bio-Rad) for DSF. […] For ArgF each 25 μL reaction mixture contained 5 µM ArgF, 25 mM Tris-HCl (pH 8.0), 150 mM NaCl, 5x SYPRO Orange dye, 5 mM fragments and 5% DMSO (v/v). […] The protocol implemented increased temperature by 0.5 °C after every 30 s, going from 25 °C to 95 °C and measuring SYPRO Orange fluorescence for each temperature cycle. The melt curve RFU (relative fluorescence units) and derivative -d(RFU)/dT values were analysed and plotted using a macros-enabled Excel Workbook: the minima of the melt curves were recorded as the melting temperature (Tm) of the enzymes in the presence of each fragment. The Tm of the reference control (protein in the presence of DMSO) was subtracted from all the readings to calculate ΔTm.

[8] = tested on: M. tuberculosis MDR strain V2475; assay: microbe, parasite or virus in culture; format: cell-based, Mycobacterium tuberculosis; settings: Mycobacterium tuberculosis
[9] = target: T2, ArgB; assay: biochemical; format: binding; settings: ITC Kd, six-site sequential binding model, 25 °C, sequential binding, six-site model
[10] = tested on: M. tuberculosis ΔargB-c; assay: microbe, parasite or virus in culture; format: cell-based, Mycobacterium tuberculosis
[11] = target: T2, ArgB; assay: ArgB enzymatic assay (ADP release coupled to NADH oxidation, pyruvate kinase/lactate dehydrogenase); format: biochemical; settings: IC50, 0.5 µM ArgB, 0.3 mM ATP, 1.25 mM NAG, 10% DMSO
Experimental: ArgB activity was assessed by a colorimetric assay that followed the release of ADP by measuring the oxidation of NADH at 340 nm, for 30 min, in the presence of pyruvate kinase and lactate dehydrogenase in a PHERAstar plate-reader (BMG-Labtech). […]. Inhibitors were also individually screened against the coupled enzymes to eliminate any compounds interfering with the other assay components. Competition assays were performed in the same conditions using 0.3 mM of ATP or NAG and varying the other substrate concentration.

[12] = tested on: M. tuberculosis H37Rv; assay: microbe, parasite or virus in culture; format: cell-based, Mycobacterium tuberculosis
[13] = fragments at 1 mM, adjusted for molecular weight

O=C(O)C1c2ccccc2Oc2ccccc21 [NMR571, Xanthene-9-carboxylic acid]
SPR Binding Response [1, 13]: 78.0 RU | inhibition at 2000 µM [2]: 37% | ΔTm at 5000 µM [3]: 3.1 °C | Binding site (X-ray) [4]: Substrate

COc1ccc2[nH]cc(CC(=O)O)c2c1 [NMR322, 5-Methoxy-3-indoleacetic acid]
SPR Binding Response [1, 13]: 80.5 RU | inhibition at 2000 µM [2]: 45% | ΔTm at 5000 µM [3]: 3.1 °C | Binding site (X-ray) [4]: Substrate

Cc1ncc(COP(=O)(O)O)c(C=O)c1O [PLP, pyridoxal-5′-phosphate]
Melting temperature of ArgD after addition of PLP [5]: 79 °C | ΔTm at 1000 µM ([5]; PLP (1 mM), PLP-unsaturated ArgD): 13 °C | Melting temperature of ArgD after addition of PLP ([5]; PLP-unsaturated ArgD + 1 mM PLP): 77.5 °C

Nc1ncnc2c1ncn2[C@@H]1O[C@H](COP(=O)(O)OP(=O)(O)OP(=O)(O)O)[C@@H](O)[C@H]1O [ATP]
DSF ΔTm [6]: +2.0 °C

Nc1ccc(Oc2ccccc2)nc1 [NMR401, 6-phenoxy-3-pyridinamine]
SPR Binding Response [1, 13]: 36.7 RU | inhibition at 2000 µM [2]: 10% | ΔTm at 5000 µM [3]: 4.8 °C | Binding site (X-ray) [4]: Co-factor

NCCC[C@H](N)C(=O)O [L-ornithine, reference compound]
DSF ΔTm [7]: 1.5 °C

NC(=O)C1=CN([C@@H]2O[C@H](COP(=O)(O)OP(=O)(O)OC[C@H]3O[C@@H](n4cnc5c(N)ncnc54)[C@H](OP(=O)(O)O)[C@@H]3O)[C@@H](O)[C@H]2O)C=CC1 [NADPH, reference compound]
SPR Binding Response ([1]; 1.25 mM): 16.3 (1.25 mM) RU | DSF ΔTm [3]: −0.9 °C | Binding site (X-ray) [4]: Co-factor

NC(N)=NOCC[C@H](N)C(=O)O [L-canavanine, reference compound]
MIC [8]: > 200 µg/mL | Kd ([9]; 1st value): 4.5 µM | Kd ([9]; 2nd value): 4.8 µM | Kd ([9]; 3rd value): 6.4 µM | Kd ([9]; 4th value): 34 µM | Kd ([9]; 5th value): 35 µM | Kd ([9]; 6th value): 137 µM | Inhibitory activity on growth with arginine present [10]: no inhibitory activity | MIC ([10]; Mycobacterium tuberculosis): 50 µg/mL (≈ 284 µM) | IC50 [11]: 1460 ± 2 µM | ΔTm at 1000 µM [6]: 7.2 °C | MIC ([12]; Mycobacterium tuberculosis, media without arginine): 50 µg/mL (≈ 284 µM) | Inhibitory activity on growth with arginine present ([12]; arginine (1 mM) in the media): no inhibitory activity

N=C(N)NCCC[C@H](N)C(=O)O [L-arginine]
Kd ([9]; 1st value): 4.5 µM | Kd ([9]; 2nd value): 4.8 µM | Kd ([9]; 3rd value): 6.1 µM | Kd ([9]; 4th value): 9.4 µM | Kd ([9]; 5th value): 12.9 µM | Kd ([9]; 6th value): 42 µM | IC50 [11]: 146 ± 1 µM | ΔTm at 1000 µM [6]: 11.8 °C

COc1ccc2oc(C(=O)O)nc2c1 [NMR863, 5-methoxy-1,3-benzoxazole-2-carboxylic acid]
SPR Binding Response [1, 13]: 41.6 RU | inhibition at 2000 µM [2]: 12% | ΔTm at 5000 µM [3]: 5 °C | Binding site (X-ray) [4]: Co-factor

NC(=O)c1ccc[n+]([C@@H]2O[C@H](COP(=O)([O-])OP(=O)(O)OC[C@H]3O[C@@H](n4cnc5c(N)ncnc54)[C@H](OP(=O)(O)O)[C@@H]3O)[C@@H](O)[C@H]2O)c1 [NADP, reference compound]
SPR Binding Response ([1]; 1.25 mM): 19.5 (1.25 mM) RU | DSF ΔTm [3]: +0.6 °C | DSF ΔTm ([3]; listed as NADP^+): ~ 0.6 °C | Binding site (X-ray) [4]: Co-factor

NC(=O)NCCC[C@H](N)C(=O)O [L-citruline, L-citrulline, reference compound]
ΔTm at 1000 µM ([7]; read-out: DSF ΔTm): 1 °C

CC(=O)N[C@@H](CCC(=O)O)C(=O)O [NAG, N-acetyl-L-glutamic acid]
ΔTm at 1000 µM [6]: 8.6 °C
